Measurements reported in patent publication US6727264B1 (Synaptic Pharmaceutical Corporation, priority 2001, dated 2004).
Blank lines part the entries; values can stand above or below the compound they belong to.

Tests used:
[1] = biological target: T1, human Histamine H1 receptor (Homo sapiens, UniProt P35367); assay: Binding affinity at cloned human Histamine H1 receptor; conditions: read-out: hH1 Ki
T1 construct: expressed in transfected cells

[2] = biological target: T2, rat MCH-1 (Rattus norvegicus, UniProt P97639); assay: Radioligand binding assay at cloned rat MCH1 receptor ([3H] Compound A); set-up: host or cells: Peak rapid 293 (Peakr293) cells, transient calcium phosphate transfection, membranes; conditions: cloned rat MCH1 receptor, membranes from Peakr293 cells, 0.08 nM [3H] Compound A; read-out: Ki (nM) rMCH1
T2 sequence (P97639 whole entry): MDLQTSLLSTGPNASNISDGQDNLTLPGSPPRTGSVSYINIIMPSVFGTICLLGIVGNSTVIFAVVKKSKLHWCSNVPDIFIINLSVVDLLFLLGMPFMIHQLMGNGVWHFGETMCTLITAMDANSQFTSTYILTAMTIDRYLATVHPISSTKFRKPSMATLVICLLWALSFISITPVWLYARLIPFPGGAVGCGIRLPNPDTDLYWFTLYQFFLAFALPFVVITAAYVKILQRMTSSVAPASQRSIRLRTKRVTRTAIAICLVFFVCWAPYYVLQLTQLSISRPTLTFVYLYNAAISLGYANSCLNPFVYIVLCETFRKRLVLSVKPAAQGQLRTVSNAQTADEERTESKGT

[3] = biological target: human Dopamine D2 receptor (Homo sapiens, UniProt P14416); assay: Binding affinity at cloned human Dopamine D2 receptor; conditions: read-out: hD2 Ki
human Dopamine D2 receptor, sequence (P14416 whole entry): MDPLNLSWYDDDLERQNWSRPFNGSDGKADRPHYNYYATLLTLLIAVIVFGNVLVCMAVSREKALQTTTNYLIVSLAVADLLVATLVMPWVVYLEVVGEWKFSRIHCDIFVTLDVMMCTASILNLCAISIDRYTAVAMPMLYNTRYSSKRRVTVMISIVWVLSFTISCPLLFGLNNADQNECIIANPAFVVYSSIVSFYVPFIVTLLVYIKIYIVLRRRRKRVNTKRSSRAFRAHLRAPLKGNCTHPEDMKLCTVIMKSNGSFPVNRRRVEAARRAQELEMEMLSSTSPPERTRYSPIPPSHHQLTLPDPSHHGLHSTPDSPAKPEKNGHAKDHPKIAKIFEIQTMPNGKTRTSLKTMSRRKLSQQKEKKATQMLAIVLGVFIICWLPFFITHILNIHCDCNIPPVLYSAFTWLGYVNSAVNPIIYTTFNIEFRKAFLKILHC

[4] = biological target: T3, human Alpha-1a Adrenergic receptor (Homo sapiens, UniProt P35348); assay: Binding affinity at cloned human Alpha-1a Adrenergic receptor; conditions: read-out: hALPHA-1a Ki
T3 construct: expressed in transfected cells
T3 sequence (P35348 1-466): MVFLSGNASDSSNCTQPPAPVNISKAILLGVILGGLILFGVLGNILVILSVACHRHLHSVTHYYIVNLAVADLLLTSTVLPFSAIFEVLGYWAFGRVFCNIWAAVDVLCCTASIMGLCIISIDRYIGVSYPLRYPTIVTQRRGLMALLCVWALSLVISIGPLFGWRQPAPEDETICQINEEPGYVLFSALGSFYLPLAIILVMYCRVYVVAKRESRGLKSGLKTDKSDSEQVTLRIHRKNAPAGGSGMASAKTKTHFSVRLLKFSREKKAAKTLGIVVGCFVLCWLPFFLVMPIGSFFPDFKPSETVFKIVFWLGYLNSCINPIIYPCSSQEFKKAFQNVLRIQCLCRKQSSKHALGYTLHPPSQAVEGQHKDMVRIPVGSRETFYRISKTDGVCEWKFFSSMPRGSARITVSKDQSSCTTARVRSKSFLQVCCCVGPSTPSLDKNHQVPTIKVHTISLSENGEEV

[5] = system: Female Sprague Dawley rats; assay: Distension-induced rhythmic contraction (DIRC) model of the micturition reflex; type: in vivo, rat; set-up: key: E: Produced a significant increase in contraction interval relative to pre-drug interval; conditions: urethane-anesthetized female rats, i.v. or i.p.; vs pre-drug interval
Description: The effects of compounds on the micturition reflex were assessed in the “distension-induced rhythmic contraction” (DIRC), as described in previous publications (e.g. Maggi et al, 1987; Morikawa et al, 1992), and Continuous Slow Transvesicular Infusion (CSTI) models in rats. Female Sprague Dawley rats weighing approximately 300 g were anesthetized with subcutaneous urethane (1.2 g/kg). The trachea was cannulated with PE240 tubing to provide a clear airway throughout the experiment. A midline abdominal incision was made and the left and right ureters were isolated. The ureters were ligated distally (to prevent escape of fluids from the bladder) and cannulated proximally with PE10 tubing. The incision was closed using 4-0 silk sutures, leaving the PE10 lines routed to the exterior for the elimination of urine. The bladder was canulated via the transurethral route using PE50 tubing inserted 2.5 cm beyond the urethral opening. This cannula was secured to the tail using tape and connected to a pressure transducer. To prevent leakage from the bladder, the cannula was tied tightly to the exterior urethral opening using 4-0 silk. To initiate the micturition reflex, the bladder was first emptied by applying pressure to the lower abdomen, and then filled with normal saline in […] (maximum=2 ml) until spontaneous bladder contractions occurred (typically 20-40 mmHg at a rate of one contraction every 2 to 3 minutes. Once a regular rhythm was established, vehicle (saline) or Test Compounds were administered i.v. or i.p. to explore their effects on bladder activity. The 5-HT1A antagonist WAY-100635 was given as a positive control. Data were expressed as contraction interval (in seconds) before drug application (basal), or after the application of vehicle or test article.

[6] = system: Male Sprague Dawley rats; assay: Continuous Slow Transvesicular Infusion (CSTI) rat model; type: in vivo; set-up: key: F: Produced an increase in bladder capacity in rats relative to baseline capacity; conditions: intragastric administration, vs baseline capacity
Description: The effects of compounds on the micturition reflex were assessed in the “distension-induced rhythmic contraction” (DIRC), as described in previous publications (e.g. Maggi et al, 1987; Morikawa et al, 1992), and Continuous Slow Transvesicular Infusion (CSTI) models in rats. Male Sprague Dawley rats weighing approximately 300 g were used for the study. Rats were anaesthetized with pentobarbitone sodium (50 mg/kg, i.p). Through a median abdominal incision, bladder was exposed and a polyethylene cannula (PE 50) was introduced into the bladder through a small cut on the dome of the bladder and the cannula was secured with a purse string suture. The other end of the cannula was exteriorized subcutaneously at the dorsal neck area. Similarly, another cannula (PE 50) was introduced into the stomach through a paramedian abdominal incision with the free end exteriorized subcutaneously to the neck region. The surgical wounds were closed with silk 4-0 suture and the animal was allowed to recover with appropriate post surgical care. On the following day, the animal was placed in a rat restrainer. The open end of the bladder-cannula was connected to a pressure transducer as well as infusion pump through a three-way stopcock. The bladder voiding cycles were initiated by continuous infusion of normal saline at the rate of 100 μl/min. The repetitive voiding contractions were recorded on a Power Lab on-line data acquisition software. After recording the basal voiding pattern for an hour, the test drug or vehicle was administered directly into stomach through the intragastric catheter and the voiding cycles were monitored for 5 hours. Micturition pressure and frequency were calculated before and after the treatment (at every 30 min interval) for each animal. Bladder capacity was calculated from the micturition frequency, based on the constant infusion of 100 ul/min. The effect of the test drug was expressed as a percentage of basal, pre-drug bladder capacity. WAY 100635 was used as positive control for comparison.

[7] = system: food intake induced by the intracerebroventricular application of MCH; conditions: in vivo; cited from earlier work
[8] = biological target: T2, rat MCH-1; conditions: cited from earlier work
[9] = biological target: human MCH-1 (Homo sapiens, UniProt Q99705); conditions: cited from earlier work
human MCH-1, sequence (Q99705 whole entry): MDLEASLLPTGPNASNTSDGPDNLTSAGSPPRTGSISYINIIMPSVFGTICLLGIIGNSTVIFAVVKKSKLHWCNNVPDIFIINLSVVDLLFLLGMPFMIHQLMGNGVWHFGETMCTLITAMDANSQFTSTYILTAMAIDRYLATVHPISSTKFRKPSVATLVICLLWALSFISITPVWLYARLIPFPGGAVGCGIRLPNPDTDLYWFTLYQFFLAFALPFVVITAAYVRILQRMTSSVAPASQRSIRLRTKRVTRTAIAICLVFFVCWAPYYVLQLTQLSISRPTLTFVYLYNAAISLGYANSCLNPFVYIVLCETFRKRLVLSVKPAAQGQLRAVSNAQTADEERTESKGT

[10] = system: G4F-7 cells; conditions: cited from earlier work

T1 sequence (P35367 whole entry): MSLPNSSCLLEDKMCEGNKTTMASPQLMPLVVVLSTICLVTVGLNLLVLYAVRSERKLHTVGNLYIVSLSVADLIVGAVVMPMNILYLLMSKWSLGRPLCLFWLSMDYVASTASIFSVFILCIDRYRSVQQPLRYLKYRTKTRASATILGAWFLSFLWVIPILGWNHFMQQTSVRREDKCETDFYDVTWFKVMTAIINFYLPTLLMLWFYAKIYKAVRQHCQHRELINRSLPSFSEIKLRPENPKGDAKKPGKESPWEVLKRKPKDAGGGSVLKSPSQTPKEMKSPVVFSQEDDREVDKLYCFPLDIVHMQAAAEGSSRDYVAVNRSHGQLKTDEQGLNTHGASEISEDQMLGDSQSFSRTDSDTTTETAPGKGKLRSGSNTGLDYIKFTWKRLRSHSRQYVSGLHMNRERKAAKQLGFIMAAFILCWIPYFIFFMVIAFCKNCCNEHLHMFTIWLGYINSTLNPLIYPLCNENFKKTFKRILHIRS

- Ki [1]: > 50000 nM
- Ki [2]: 32.5 nM
- Ki [3]: 46.6 nM
- Ki [4]: 232 nM
Compound: CC(C)C(=O)Nc1cccc(C2CCN(CCC(OC(=O)c3cccc4ccccc34)c3ccccc3)CC2)c1 (stereo in doubt) [Example 69, (1S)-3-{4-[3-(ISOBUTYRYLAMINO)PHENYL]-1-PIPERIDINYL}-1-PHENYLPROPYL 1-NAPHTHOATE]

Compound: Cc1ccc(C(=O)CCCN2CCC(c3cccc(NC(=O)C(C)C)c3)CC2)cc1C [Example 2]
- DIRC (contraction interval) [5]: E
- CSTI (bladder capacity) [6]: F

Compound: CC(C)C(=O)Nc1cccc(C2CCN(CCCC(=O)c3ccc(Cl)cc3)CC2)c1 [Example 10]
- DIRC (contraction interval) [5]: E
- CSTI (bladder capacity) [6]: F

- Ki [3]: 34900 nM
Compound: COC(CCN1CCC(c2cccc(NC(=O)C(C)C)c2)CC1)c1ccccc1 (stereo not drawn) [Example 37]

- Ki [1]: 2840 nM
- Ki [2]: 11.8 nM
- Ki [3]: 19000 nM
- Ki [4]: 2470 nM
Compound: CC(=O)Nc1cccc(C2CCN(CCCNC(=O)N3C(=O)O[C@H](C)[C@@H]3c3ccc(F)c(F)c3)CC2)c1 [Example 75]

- Ki [1]: > 50000 nM
Compound: CC(C)C(=O)Nc1cccc(C2CCN(CC[C@H](Oc3ccc(-c4ccccc4)cc3)c3ccccc3)CC2)c1 [Example 78]

Compound: COc1ccc2[nH]c(-c3ccccc3)c(CCCN3CCC(c4cccc(NC(=O)C(C)C)c4)CC3)c2c1 [Example 91]
- DIRC (contraction interval) [5]: E
- CSTI (bladder capacity) [6]: F

Compound: CCn1c2ccccc2c2cc(CN3CCC(c4cccc(NC(=O)C(C)C)c4)CC3)ccc21 [Example 99]
- DIRC (contraction interval) [5]: E
- CSTI (bladder capacity) [6]: F

Compound: Cc1onc(-c2c(Cl)cccc2Cl)c1C(=O)NCCCCCN1CCC(c2cccc(NC(=O)C(C)C)c2)CC1 [Example 106]
- DIRC (contraction interval) [5]: E
- CSTI (bladder capacity) [6]: F

Compound: CC(=O)c1cccc(O[C@H](CCN2CCC(c3cccc(NC(=O)C(C)C)c3)CC2)c2ccccc2)c1 [Example 116]
- DIRC (contraction interval) [5]: E
- CSTI (bladder capacity) [6]: F

Compound: CN(C)CC1CCc2cc(NC(=O)c3ccc(-c4ccc(F)cc4)cc3)ccc2C1 (stereo not drawn) [Example T-226296, T-226296]
- food intake induced by intracerebroventricular MCH [7]: inhibit food intake
- affinity for the MCH-1 receptor [8]: 5 to 9 nM
- affinity for the MCH-1 receptor [9]: 5 to 9 nM

Compound: [Phe^13, Tyr^19]-MCH
- Kd ([10]; radioiodinated ligand, G4F-7 cells): 0.118 nM

Compound: rat ANF
- Ki ([10]; mouse melanoma cells, read-out: Ki (inhibition of [Phe13,Tyr19]-MCH binding)): 116 nM
